According to patent publication US5434182A (priority 1993, dated 1995):
Where “and” joins values, the source holds several entries; their conditions need not be identical. Equal values may be shown once. Entries after “also recorded” stand apart in the source; their conditions may differ. Read-outs that look alike come from different tables or passages of the source.

Tests used:
poliovirus = assay type: cell-based, Poliovirus type 1 strain Chat; settings: 8 mg/ml, 37° C., 30 min; control 10^4.7 TCID50
VSV [1] = test: microbe, parasite or virus in culture; assay type: cell-based, vesicular stomatitis virus strain Indiana; settings: Vesicular stomatitis virus, 0.5 h; for minimal effective concentration: read-out: lowest concentration which reduced the VSV titer by ≥4.0 log10 units
enveloped viruses = assay type: cell-based
HSV-1 [2] = test: microbe, parasite or virus in culture; assay type: cell-based, herpes simplex virus type 1 strain MacIntyre; settings: Human alphaherpesvirus 1, 0.5 h, 37° C., 30 min, read-out: Reduction of virus titer, HSV-1
Visna virus = test: microbe, parasite or virus in culture; assay type: cell-based, Visna virus strain K796; settings: Visna-maedi virus, 0.5 h, 37° C., 30 min, read-out: Reduction of virus titer, VV (visna virus)
VSV [3] = test: microbe, parasite or virus in culture; assay type: cell-based, vesicular stomatitis virus; settings: for log reduction at 15000 µM: Vesicular stomatitis virus
sperm = test: Spermicidal test: motility and viability of sperm in semen; assay type: cell-based; settings: for viability at 100000 µM / viability at 150000 µM: Homo sapiens, Sperm
Description: The fatty acids and derivatives thereof disclosed here are useful as spermicides and in the treatment of sexually transmitted diseases. […] Four samples tested were comprised as follows:
Five test tubes were prepared, one for each of Samples A to D and a Control. An amount of 0.5 ml of active semen was added to each test tube. Each of Samples A and B and the Control was at 37° C., and Samples C and D were at room temperature. The percentages of motility and viability were measured from 15 seconds to 5 minutes in the case of each of Samples A to D and from 15 seconds to 2 hours for the Control.

Total White Blood Cells = test: Stability of white blood cells in whole human blood to added lipid; assay type: cell-based; set-up: unit not given here; settings: 15 mM, control 6.4
Text: Further testing has shown the effect of monoglyceride esters and ether on the total white blood cell concentration in whole human blood.

VSV [4] = test: microbe, parasite or virus in culture; assay type: cell-based, vesicular stomatitis virus strain Indiana; settings: for minimal effective concentration: read-out: Lowest concentration causing ≥3.0 log10 reduction in virus titer
Group B streptococcus = test: Inactivation of bacteria by monoglycerides, Group B streptococcus; assay type: cell-based; settings: 2 mg/ml, read-out: Reduction of bacterial concentration, Group B streptococcus
Vero cells = test: Disintegration of cell membranes, Vero cells (scanning electron microscopy); settings: 1 mg/ml, 37° C., 30 min
sheep fibroblasts = test: Disintegration of cell membranes, sheep fibroblasts (scanning electron microscopy); settings: 1 mg/ml, 37° C., 30 min
VSV [5] = test: microbe, parasite or virus in culture; assay type: cell-based, vesicular stomatitis virus strain Indiana; settings: for effect on viral particles (electron micrographs): 37° C., 30 min
HSV-1 [6] = assay type: cell-based, herpes simplex virus type 1 strain MacIntyre
HSV-1 [7] = test: microbe, parasite or virus in culture; assay type: cell-based, herpes simplex virus type 1 strain MacIntyre; settings: Human alphaherpesvirus 1, 0.5 h; 0.25 mg/ml, 37° C., 30 min; read-out: Reduction of virus titer, HSV-1
VSV [8] = test: microbe, parasite or virus in culture; assay type: cell-based, vesicular stomatitis virus
[9] = read-out: Reduction of virus titer, VSV
[10] = Vesicular stomatitis virus, 0.5 h
[11] = Vesicular stomatitis virus, 0.5 h, read-out: Reduction of virus titer, VSV

CCCCCCCCCCCCCC(=O)O [Myristic (14:0), Myristic]
reduction of poliovirus titer (poliovirus): did not cause a significant reduction of virus titer | log reduction at 4000 µg/mL (VSV [1]; [9]): ≥ 4 | minimal effective concentration (VSV [1]): 4000 µg/mL and 16000 µM | antiviral activity in words (enveloped viruses): showed activity | log reduction at 4000 µg/mL (HSV-1 [2]; 4 mg/ml): ≥ 4 | log reduction at 4000 µg/mL (Visna virus; 4 mg/ml): 1.7

CCCCCCCCOC[C@@H](O)CO [1-O-Octyl-sn-glycerol, 1-O-octyl-sn-glycerol]
Reduction in VSV titer (VSV [3]; 5 mM, with 10 mM sodium taurocholate, human plasma, 37° 30 min): ≥ 4.0 Log10 | log reduction at 15000 µM (VSV [3]; 2.5 min, read-out: Reduction in VSV Titer, 15 mM, 2.5 min, 37°, human plasma): 0 | log reduction at 15000 µM (VSV [3]; 5 min, read-out: Reduction in VSV Titer, 15 mM, 5 min, 37°, human plasma): ≥ 4 | log reduction at 15000 µM (VSV [3]; 10 min, read-out: Reduction in VSV Titer, 15 mM, 10 min, 37°, human plasma): ≥ 4 | log reduction at 15000 µM (VSV [3]; 0.25 h, read-out: Reduction in VSV Titer, 15 mM, 15 min, 37°, human plasma): ≥ 4 | log reduction at 15000 µM (VSV [3]; 0.5 h, read-out: Reduction in VSV Titer, 15 mM, 30 min, 37°, human plasma): ≥ 4 | log reduction at 15000 µM (VSV [3]; 0.5 h, read-out: Reduction in VSV Titer, 15 mM, no sodium taurocholate, human plasma, 37° 30 min): ≥ 4 | antiviral activity of MG ethers relative to esters, in words (VSV [3]; human plasma, listed as 8 carbon MG ether): just as effective as the naturally occurring esters; also recorded: somewhat more antiviral than the 8 carbon ester | % mot. (sperm; 100 mM in semen, 15 sec., Sample B 37° C., Sample D room temperature): 0% | % mot. (sperm; 100 mM in semen, 30 sec., Sample B 37° C., Sample D room temperature): 0% | % mot. (sperm; 100 mM in semen, 1 min., Sample B 37° C., Sample D room temperature): 0% | % mot. (sperm; 100 mM in semen, 2 min., Sample B 37° C., Sample D room temperature): 0% | % mot. (sperm; 100 mM in semen, 3 min., Sample B 37° C., Sample D room temperature): 0% | % mot. (sperm; 100 mM in semen, 5 min., Sample B 37° C., Sample D room temperature): 0% | % mot. (sperm; 150 mM in semen, 15 sec., Sample A 37° C., Sample C room temperature): 0% | % mot. (sperm; 150 mM in semen, 30 sec., Sample A 37° C., Sample C room temperature): 0% | % mot. (sperm; 150 mM in semen, 1 min., Sample A 37° C., Sample C room temperature): 0% | % mot. (sperm; 150 mM in semen, 2 min., Sample A 37° C., Sample C room temperature): 0% | % mot. (sperm; 150 mM in semen, 3 min., Sample A 37° C., Sample C room temperature): 0% | % mot. (sperm; 150 mM in semen, 5 min., Sample A 37° C., Sample C room temperature): 0% | time within which 0% viability was effected (sperm; A, C 150 mM, B 100 mM in semen): ≤ 3 min | time within which sperm cells were rendered immobile (sperm; A, C 150 mM, B 100 mM in semen): ≤ 15 s | coating of sperm (sperm; A, C 150 mM, B, D 100 mM in semen, 30 minutes): coated the sperm effectively | viability at 100000 µM (sperm; 0.05 h, 100 mM in semen, 3 min., Sample B 37° C.): 0% | viability at 150000 µM (sperm; 0.05 h, 150 mM in semen, 3 min., Sample A 37° C., Sample C room temperature): 0% | viability at 100000 µM (sperm; 5 min, 100 mM in semen, Sample B 37° C., Sample D room temperature): 0% | viability at 150000 µM (sperm; 5 min, 150 mM in semen, Sample A 37° C., Sample C room temperature): 0% | Total White Blood Cells (Total White Blood Cells): 0.6

CCCCC/C=C\C/C=C\CCCCCCCC(=O)OC[C@@H](O)CO [Monolinolein (18:2), Monolinolein]
minimal effective concentration (VSV [4]; [10]): 250 µg/mL and 700 µM | log reduction at 250 µg/mL (VSV [4]; [11]): ≥ 4 | concentration relative to monocaprin for same reduction in viral titer (VSV [4]; maintenance medium, millimolar): one-third the concentration | log reduction at 2000 µg/mL (Group B streptococcus): 4.5

CCCCCCCCCCCC(=O)O [Lauric (12:0), Lauric]
reduction of poliovirus titer (poliovirus): did not cause a significant reduction of virus titer | log reduction at 2000 µg/mL (VSV [1]; [9]): ≥ 4 | minimal effective concentration (VSV [1]): 2000 µg/mL and 10000 µM | antiviral activity in words (enveloped viruses): showed activity | log reduction at 2000 µg/mL (HSV-1 [2]; 2 mg/ml): ≥ 4 | log reduction at 2000 µg/mL (Visna virus; 2 mg/ml): ≥ 3.2

CCCCC/C=C\C/C=C\CCCCCCCC(=O)O [Linoleic (18:2), linoleic acid]
reduction of poliovirus titer (poliovirus): did not cause a significant reduction of virus titer | effect on cell membranes (Vero cells): the cell membranes were partly or completely disintegrated | effect on cell membranes (sheep fibroblasts): the cell membranes were partly or completely disintegrated | log reduction at 1000 µg/mL (VSV [1]; [9]): ≥ 4 | minimal effective concentration (VSV [1]): 1000 µg/mL and 3500 µM | log reduction at 1000 µg/mL (HSV-1 [2]; 1 mg/ml): ≥ 4 | effect on viral particles (electron micrographs) (VSV [5]; 0.5 mg/ml): leakage of viral envelopes was produced | effect on viral particles (electron micrographs) (VSV [5]; 1 mg/ml): particle disintegration | log reduction at 500 µg/mL (VSV [5]; Vesicular stomatitis virus, 0.5 h, read-out: reduction in virus titer, 0.5 mg/ml, samples used for electron microscopy): 1 | log reduction at 1000 µg/mL (VSV [5]; Vesicular stomatitis virus, 0.5 h, read-out: reduction in virus titer, 1 mg/ml, samples used for electron microscopy): ≥ 3 | log reduction at 1000 µg/mL (Visna virus; 1 mg/ml): ≥ 3.2

CCCCCCCCCCCCCC(=O)OCC(O)CO (stereo not drawn) [Monomyristin (14:0), Monomyristin]
minimal effective concentration (VSV [4]; [10]): 2000 µg/mL and 13000 µM | log reduction at 2000 µg/mL (VSV [4]; [11]): 3 | antiviral activity in words (enveloped viruses): consistently less active

CCCCCCCCCCCC(=O)OCC(O)CO (racemic) [Monolaurin (12:0), 1-Monolauroyl-rac-glycerol]
Reduction of HSV-L titer (HSV-1 [6]; incubation 0.5 min): ≥ 4.0 | Reduction of HSV-L titer (HSV-1 [6]; incubation 1 min): ≥ 4.0 | Reduction of HSV-L titer (HSV-1 [6]; incubation 5 min): ≥ 4.0 | Reduction of HSV-L titer (HSV-1 [6]; incubation 10 min): ≥ 4.0 | Reduction of HSV-L titer (HSV-1 [6]; incubation 30 min): ≥ 4.0 | minimal effective concentration (VSV [4]; [10]): 250 µg/mL and 900 µM | log reduction at 250 µg/mL (VSV [4]; [11]): ≥ 4 | active concentration relative to corresponding free acids (VSV [4]; monoglyceride vs free acid): ten times lower | log reduction at 2000 µg/mL (Group B streptococcus): 4.5 | log reduction at 250 µg/mL (HSV-1 [7]): ≥ 3.7 | dependence of viral killing on sodium taurocholate (VSV [8]; VSV, human serum): only takes place when sodium taurocholate is present | log reduction at 3000 µM (VSV [8]; Vesicular stomatitis virus, read-out: Reduction in VSV Titer, 3 mM, 10 mM sodium taurocholate, human serum): ≥ 5 | log reduction at 3000 µM (VSV [8]; Vesicular stomatitis virus, read-out: Reduction in VSV Titer, 3 mM, no sodium taurocholate, human serum): 0 | log reduction at 4000 µM (VSV [8]; Vesicular stomatitis virus, read-out: Reduction in VSV Titer, 4 mM, 10 mM sodium taurocholate, human serum): ≥ 5 | log reduction at 4000 µM (VSV [8]; Vesicular stomatitis virus, read-out: Reduction in VSV Titer, 4 mM, no sodium taurocholate, human serum): 0 | log reduction at 5000 µM (VSV [8]; Vesicular stomatitis virus, read-out: Reduction in VSV Titer, 5 mM, 10 mM sodium taurocholate, human serum): ≥ 5 | log reduction at 5000 µM (VSV [8]; Vesicular stomatitis virus, read-out: Reduction in VSV Titer, 5 mM, no sodium taurocholate, human serum): 0 | log reduction at 7500 µM (VSV [8]; Vesicular stomatitis virus, read-out: Reduction in VSV Titer, 7.5 mM, 10 mM sodium taurocholate, human serum (Table 18)): ≥ 5 | log reduction at 15000 µM (VSV [8]; Vesicular stomatitis virus, read-out: Reduction in VSV Titer, 15 mM, 10 mM sodium taurocholate, human serum): ≥ 5 | concentration as low as which kills VSV (VSV [8]; in the presence of 10 mM sodium taurocholate): 3 mM
